Laboratory results published in US20240174680A1, “CDK2 INHIBITORS AND METHODS OF USING THE SAME” (Cedilla Therapeutics, Inc., priority 2021, published 2024).

What follows are compounds tested against CDK2/Cyclin E1 (Homo sapiens, UniProt P24941) (assay: CDK2/Cyclin E1 Caliper LabChip EZ Reader mobility shift assay). Settings: read-out: Caliper Assay (CDK2/CCNE1): IC50.
Format: biochemical
Parameters: purchased Eurofins 14-475
Description: Inhibition of CDK2/Cyclin E1 activity in the presence of compounds of the present disclosure was evaluated using a Caliper LabChip® EZ Reader mobility shift assay. In the assay, CDK2/Cyclin E1 (Eurofins, 14-475) catalyzed the phosphorylation of a fluorescently tagged peptide 5-FAM-QSPKKG-CONH2 (PerkinElmer, FL Peptide 18) which induced a difference in capillary electrophoresis mobility. The peptide substrate and product were measured, and the conversion ratio was used to determine the inhibition (as % activity and IC50 values) of CDK2/Cyclin E1. Reactions contained 50 mM HEPES pH 7.5, 10 mM MgCl2, 1 mM EDTA, 2 mM DTT, 0.01% Brij35, 0.5 mg/mL BSA, 0.1% DMSO, 2.5 nM CDK2/Cyclin E1, 100 μM ATP, and 1.5 μM fluorescent peptide substrate.
Dose titrations of inhibitors in 100% DMSO were combined with 3.25 nM CDK2/Cyclin E1 and 130 μM of ATP in reaction buffer. The mixtures were incubated for 30 minutes before the addition of fluorescent peptide substrate to initiate the kinase reaction. The final conditions were 2.5 nM CDK2/Cyclin E1, 100 μM ATP, and 1.5 μM fluorescent peptide. The reactions were stopped after 100 minutes with the addition of EDTA (400 mM final EDTA concentration). The stopped reactions were analyzed on a Caliper LabChip® EZ Reader II. The conversion ratios were normalized to yield % activity, plotted against compound concentration, and fit to a four-parameter equation to determine the IC50 for each compound.

Row | Structure (SMILES) | IC50
1 | CC1(C)C[C@@H]1C(=O)N1CC2(CN(C(=O)c3cnn(Cc4ccccc4)c3)C[C@H]2C(=O)N[C@@H]2CCCN(C(=O)C3CCCCC3)C2)C1 [I-215] | 1000 to 10000 nM
2 | CNC(=O)[C@@H](NC(=O)[C@@H]1CN(Cc2cncs2)CC12CN(C(=O)[C@H]1CC1(C)C)C2)[C@@H](C)OCc1ccccc1 [I-51A] | > 10000 nM
3 | CNC(=O)[C@@H](NC(=O)[C@@H]1CN(C(=O)c2cnn(Cc3ccccc3)c2)CC12CN(C(=O)[C@H]1CC1(C)C)C2)C(C)(C)SCc1ccccc1 [I-171A, (S)-6-(1-benzyl-1H-pyrazole-4-carbonyl)-N—((R)-3-(benzylthio)-3-methyl-1-(methylamino)-1-oxobutan-2-yl)-2-((S)-2,2-dimethylcyclopropane-1-carbonyl)-2,6-diazaspiro[3.4]octane-8-carboxamide] | 100 to 1000 nM
4 | C[C@@H](OCC1CCCCC1)[C@H](NC(=O)[C@@H]1CN(C(=O)c2cncs2)CC12CN(C(=O)[C@H]1CC1(C)C)C2)C(=O)N1CCOCC1 [I-198] | ≤ 10 nM
5 | CNC(=O)[C@@H](NC(=O)[C@H]1CN(C(=O)c2cnn(Cc3ccccc3)c2)CC12CN(C(=O)[C@H]1CC1(C)C)C2)[C@@H](C)OCC1CCC(C(F)(F)F)CC1 (stereo partly drawn) [I-141B] | 100 to 1000 nM
6 | CNC(=O)[C@@H](NC(=O)[C@@H]1CN(Cc2cnco2)CC12CN(C(=O)[C@H]1CC1(C)C)C2)[C@@H](C)OCc1ccccc1 [I-78A, (S)—N-((2S,3R)-3-(benzyloxy)-1-(methylamino)-1-oxobutan-2-yl)-2-((S)-2,2-dimethylcyclopropane-1-carbonyl)-6-(oxazol-5-ylmethyl)-2,6-diazaspiro[3.4]octane-8-carboxamide] | > 10000 nM
7 | C[C@@H](OCC1CCC(F)(F)CC1)[C@@H](COC1CCOCC1)NC(=O)[C@@H]1CN(C(=O)c2cncs2)CC12CN(C(=O)[C@H]1CC1(C)C)C2 [I-314] | ≤ 10 nM
8 | CNC(=O)[C@H](COCc1ccccc1)NC(=O)[C@@H]1CN(C(=O)c2cnn(Cc3ccccc3)c2)CC12CN(C(=O)C(C)(C)C)C2 [I-100A] | 1000 to 10000 nM
9 | C[C@@H]1C[C@H](C)CN(C(=O)[C@@H](NC(=O)C2CN(C(=O)c3cncs3)CC23CN(C(=O)[C@H]2CC2(C)C)C3)[C@@H](C)OCC2CCCCC2)C1 (stereo partly drawn) [I-172] | ≤ 10 nM
10 | CNC(=O)[C@@H](NC(=O)[C@@H]1CN(C(=O)c2cncs2)CC12CN(C(=O)[C@H]1CC1(C)C)C2)[C@@H](C)OC1CC2CCC1CC2 (stereo partly drawn) [I-464] | 10 to 100 nM
11 | CNC(=O)[C@@H](NC(=O)[C@@H]1CN(C(=O)c2cnn(Cc3ccccc3)c2)CC12CN(C(=O)[C@H]1CC1(C)C)C2)[C@@H](C)OCC1(C(F)(F)F)CC1 [I-205A] | 100 to 1000 nM
12 | CNC(=O)[C@@H](NC(=O)[C@@H]1CN(C(=O)c2cnn(Cc3ccccc3)c2)CC12CN(C(=O)[C@H]1CC1(C)C)C2)[C@@H](C)OCC1CCC(C(F)(F)F)CC1 (stereo partly drawn) [I-141A] | 10 to 100 nM
13 | CNC(=O)[C@@H](NC(=O)[C@H]1CN(C(=O)c2cnc(Cl)s2)CC12CN(C(=O)[C@H]1CC1(C)C)C2)[C@@H](C)OCC1CCCCC1 [I-189B] | > 10000 nM
14 | CNC(=O)[C@@H](NC(=O)[C@@H]1CN(C(=O)c2cnn(Cc3ccccc3)c2)CC12CN(C(=O)[C@H]1CC1(C)C)C2)[C@@H](C)OCC1CCCC1 [I-110A] | 10 to 100 nM
15 | CNC(=O)[C@@H](NC(=O)[C@@H]1CN(C(=O)c2c[nH]c3ccccc23)CC12CN(C(=O)[C@H]1CC1(C)C)C2)[C@@H](C)OCc1ccccc1 [I-72A] | > 10000 nM
16 | CNC(=O)[C@@H](NC(=O)[C@H]1CN(C(=O)c2cnn(Cc3ccc(F)cc3)c2)CC12CN(C(=O)[C@H]1CC1(C)C)C2)[C@@H](C)OCc1ccc(F)cc1 [I-136B] | 100 to 1000 nM
17 | COC(=O)c1ccc(C2CCN(C(=O)[C@@H](NC(=O)[C@@H]3CN(C(=O)c4cnn(Cc5ccccc5)c4)CC34CN(C(=O)[C@H]3CC3(C)C)C4)[C@@H](C)OCC3CCCCC3)CC2)cc1 [I-147] | ≤ 10 nM
18 | C[C@@H](OCc1ccccc1)C(NC(=O)C1CN(C(=O)c2cnn(Cc3ccccc3)c2)CC12CN(C(=O)[C@H]1CC1(C)C)C2)C(=O)NCCOCCOCCO (stereo partly drawn) [I-21] | 10 to 100 nM
19 | CC1(C)C[C@@H]1C(=O)N1CC2(CN(C(=O)c3cnn(Cc4ccccc4)c3)C[C@H]2C(=O)N[C@H]2CCc3cc(Cl)ccc32)C1 [I-133A] | 1000 to 10000 nM
20 | Cc1nc(C)c(C(=O)N2C[C@@H](C(=O)N[C@H](C(=O)N3CCC(C(F)(F)F)CC3)[C@@H](C)OCC34CCC(CC3)OC4)C3(C2)CN(C(=O)[C@H]2CC2(C)C)C3)s1 [I-456] | ≤ 10 nM
21 | COC[C@H]1CCCN(C(=O)[C@H](C)NC(=O)[C@@H]2CN(C(=O)c3cncs3)CC23CN(C(=O)[C@H]2CC2(C)C)C3)C1 [I-325] | 1000 to 10000 nM
22 | C[C@@H](OCC1CCC(F)(F)CC1)[C@H](NC(=O)C1CN(C(=O)c2cncs2)CC12CN(C(=O)[C@H]1CC1(C)C)C2)C(=O)N1CCC(OC(F)(F)F)CC1 (stereo partly drawn) [I-394] | ≤ 10 nM
23 | CO[C@H](C)[C@H](NC(=O)[C@@H]1CN(C(=O)c2cnn(Cc3ccccc3)c2)CC12CN(C(=O)[C@H]1CC1(C)C)C2)C(=O)N1CCC(CN)CC1 [I-306] | 1000 to 10000 nM

Row | Structure (SMILES) | IC50
24 | C[C@@H](OCC1(C(F)(F)F)CC1)[C@H](NC(=O)[C@H]1CN(C(=O)c2cncs2)CC12CN(C(=O)[C@H]1CC1(C)C)C2)C(=O)N1CCCCC1 [I-292] | 10 to 100 nM
25 | CC1(C)C[C@@H]1C(=O)N1CC2(CN(C(=O)c3cnn(Cc4ccccc4)c3)C[C@@H]2C(=O)NCCOCc2ccccc2)C1 [I-96B] | > 10000 nM
26 | CNC(=O)[C@@H](NC(=O)[C@H]1CN(C(=O)c2c[nH]c3ccccc23)CC12CN(C(=O)[C@H]1CC1(C)C)C2)[C@@H](C)OCc1ccccc1 [I-72B] | > 10000 nM
27 | CNC(=O)[C@@H](NC(=O)[C@H]1CN(C(=O)c2cnn(Cc3ccccc3)c2)CC12CN(C(=O)[C@H]1CC1(C)C)C2)[C@@H](C)OCC1CCCCCC1 [I-166B] | 100 to 1000 nM
28 | CNC(=O)[C@H](CCCC1CCCCC1)NC(=O)[C@@H]1CN(C(=O)c2cnn(Cc3ccccc3)c2)CC12CN(C(=O)[C@H]1CC1(C)C)C2 [I-155A] | 100 to 1000 nM
29 | CC1(C)C[C@@H]1C(=O)N1CC2(CN(C(=O)c3cncs3)C[C@H]2C(=O)NC(c2cccc(C3CCCCC3)n2)C2CCOC2)C1 (stereo partly drawn) [I-493] | 10 to 100 nM
30 | CC1(C)C[C@@H]1C(=O)N1CC2(CN(C(=O)c3cnn(Cc4ccccc4)c3)C[C@H]2C(=O)N[C@H]2CCCN(C(=O)C3CCCCC3)C2)C1 [I-182] | 1000 to 10000 nM
31 | CO[C@H]1COCC[C@@H]1NC(=O)[C@H]1CN(C(=O)c2cnn(Cc3ccccc3)c2)CC12CN(C(=O)[C@H]1CC1(C)C)C2 [I-131B] | > 10000 nM
32 | C[C@@H](OCC1CCCCC1)[C@H](NC(=O)[C@@H]1CN(C(=O)c2cnn(Cc3ccccc3)c2)CC12CN(C(=O)[C@H]1CC1(C)C)C2)C(=O)N1CCC(CN)CC1 [I-219] | ≤ 10 nM
33 | CNC(=O)[C@@H](NC(=O)[C@@H]1CN(C(=O)c2cnn(Cc3ccccc3)c2)CC12CN(C(=O)C1C(C)(C)C1(C)C)C2)[C@@H](C)OCc1ccccc1 [I-89A] | 1000 to 10000 nM
34 | CNC(=O)[C@@H](NC(=O)[C@H]1CN(Cc2cccnc2)CC12CN(C(=O)[C@H]1CC1(C)C)C2)[C@@H](C)OCc1ccccc1 [I-49B] | > 10000 nM
35 | CNC(=O)[C@@H](NC(=O)[C@H]1CN(C(=O)c2cnco2)CC12CN(C(=O)[C@H]1CC1(C)C)C2)[C@@H](C)OCc1ccccc1 [I-39B] | > 10000 nM
36 | CNC(=O)C(NC(=O)[C@@H]1CN(C(=O)c2cnn(Cc3ccccc3)c2)CC12CN(C(=O)[C@H]1CC1(C)C)C2)c1ccc(C)nn1 (stereo partly drawn) [I-421] | 1000 to 10000 nM
37 | CNC(=O)[C@@H](NC(=O)[C@H]1CN(C(=O)c2cnn(Cc3ccccc3)c2)CC12CN(C(=O)CC1(CO)CC1)C2)[C@@H](C)OCc1ccccc1 [I-92B] | > 10000 nM
38 | CNC(=O)[C@@H](NC(=O)[C@H]1CN(Cc2cnco2)CC12CN(C(=O)[C@H]1CC1(C)C)C2)[C@@H](C)OCc1ccccc1 [I-78B] | > 10000 nM
39 | CNC(=O)[C@@H](NC(=O)[C@@H]1CN(C(=O)c2cnn(Cc3ccccc3)c2)CC12CN(C(=O)[C@H]1CC1(C)C)C2)[C@@H](C)OCC1CCCCC1 [I-123A, (S)-6-(1-benzyl-1H-pyrazole-4-carbonyl)-N-((2S,3R)-3-(cyclohexylmethoxy)-1-(methylamino)-1-oxobutan-2-yl)-2-((S)-2,2-dimethylcyclopropane-1-carbonyl)-2,6-diazaspiro[3.4]octane-8-carboxamide] | ≤ 10 nM
40 | CNC(=O)[C@@H](NC(=O)[C@H]1CN(C(=O)c2sc(C(C)C)nc2C)CC12CN(C(=O)[C@H]1CC1(C)C)C2)[C@@H](C)OCC1CCCCC1 [I-227B] | > 10000 nM
41 | C[C@@H](OCC1CCCCC1)[C@H](NC(=O)[C@@H]1CN(C(=O)c2cncs2)CC12CN(C(=O)[C@H]1CC1(C)C)C2)C(=O)N1CCNCC1 [I-328] | ≤ 10 nM
42 | C[C@@H](OCC12CCC(CC1)OC2)[C@H](NC(=O)[C@@H]1CN(C(=O)c2cncs2)CC12CN(C(=O)[C@H]1CC1(C)C)C2)C(=O)N1CCC[C@H](COC(F)F)C1 [I-461] | ≤ 10 nM
43 | CNC(=O)[C@@H](NC(=O)[C@@H]1CN(C(=O)c2cncs2)CC12CN(C(=O)C(C)(C)C)C2)[C@@H](C)OCC1CCCCC1 [I-186A] | 10 to 100 nM
44 | COc1cccc(CNC(=O)[C@@H]2CN(C(=O)c3cnn(Cc4ccccc4)c3)CC23CN(C(=O)[C@H]2CC2(C)C)C3)n1 [I-126A] | > 10000 nM
45 | CNC(=O)[C@@H](NC(=O)[C@H]1CN(C(=O)c2cn[nH]c2)CC12CN(C(=O)CC1CC1)C2)[C@@H](C)OCc1ccccc1 [I-41B] | > 10000 nM
